Source: PubChem BioAssay (NCI)
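Interpolation was linear, between the two tested concentrations surrounding the appropriate level; five concentrations were tested over 48 hours in 96-well plates. TGI: concentration producing complete growth inhibition.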

What was measured:
Experiment in all cases: NCI anticancer screen, dose series, 48 h
HL-60(TB) leukemia = system: HL-60(TB) leukemia
M14 melanoma = system: M14 melanoma
CCRF-CEM leukemia = system: CCRF-CEM leukemia
SNB-78 CNS = system: SNB-78 CNS
UACC-257 melanoma = system: UACC-257 melanoma
SK-MEL-28 melanoma = system: SK-MEL-28 melanoma
TK-10 renal = system: TK-10 renal
OVCAR-8 ovarian = system: OVCAR-8 ovarian
HOP-18 NSCLC = system: HOP-18 NSCLC
DMS 273 small cell lung = system: DMS 273 small cell lung
SW-620 colon = system: SW-620 colon
M19-MEL melanoma = system: M19-MEL melanoma
SF-539 CNS = system: SF-539 CNS
NCI-H23 lung = system: NCI-H23 lung
SK-OV-3 ovarian = system: SK-OV-3 ovarian
A549 NSCLC = system: A549 NSCLC
A498 renal = system: A498 renal
UACC-62 melanoma = system: UACC-62 melanoma
HT29 colon = system: HT29 colon
SK-MEL-5 melanoma = system: SK-MEL-5 melanoma
U251 CNS = system: U251 CNS
MOLT-4 leukemia = system: MOLT-4 leukemia
CAKI-1 renal = system: CAKI-1 renal
K-562 leukemia = system: K-562 leukemia
NCI-H522 lung = system: NCI-H522 lung
KM20L2 colon = system: KM20L2 colon
NCI-H226 lung = system: NCI-H226 lung
HOP-92 NSCLC = system: HOP-92 NSCLC
EKVX NSCLC = system: EKVX NSCLC
COLO 205 colon = system: COLO 205 colon
DLD-1 colon = system: DLD-1 colon
SF-295 CNS = system: SF-295 CNS
OVCAR-3 ovarian = system: OVCAR-3 ovarian
RPMI-8226 leukemia = system: RPMI-8226 leukemia
SNB-75 CNS = system: SNB-75 CNS
UO-31 renal = system: UO-31 renal
OVCAR-4 ovarian = system: OVCAR-4 ovarian
SF-268 CNS = system: SF-268 CNS
LOX IMVI melanoma = system: LOX IMVI melanoma
HCC-2998 colon = system: HCC-2998 colon
XF 498 CNS = system: XF 498 CNS
NCI-H460 lung = system: NCI-H460 lung
SK-MEL-2 melanoma = system: SK-MEL-2 melanoma
SR leukemia = system: SR leukemia
SNB-19 CNS = system: SNB-19 CNS
LXFL 529 NSCLC = system: LXFL 529 NSCLC
IGROV1 ovarian = system: IGROV1 ovarian
HCT-116 colon = system: HCT-116 colon
MALME-3M melanoma = system: MALME-3M melanoma
OVCAR-5 ovarian = system: OVCAR-5 ovarian
HOP-62 NSCLC = system: HOP-62 NSCLC
ACHN renal = system: ACHN renal
HCT-15 colon = system: HCT-15 colon
KM12 colon = system: KM12 colon
RXF 393 renal = system: RXF 393 renal
786-0 renal = system: 786-0 renal
SN12C renal = system: SN12C renal
DMS 114 small cell lung = system: DMS 114 small cell lung

Measured: TGI

Cc1cc(S(=O)(=O)O)c(NC(=O)C(=O)C2C=CCS2(=O)=O)cc1Cl (stereo not given)
> 100 µM: HL-60(TB) leukemia | M14 melanoma | CCRF-CEM leukemia | SNB-78 CNS | UACC-257 melanoma | SK-MEL-28 melanoma | TK-10 renal | OVCAR-8 ovarian | HOP-18 NSCLC | DMS 273 small cell lung | SW-620 colon | M19-MEL melanoma | SF-539 CNS | NCI-H23 lung | SK-OV-3 ovarian | A549 NSCLC | A498 renal | UACC-62 melanoma | HT29 colon | SK-MEL-5 melanoma | U251 CNS | MOLT-4 leukemia | CAKI-1 renal | K-562 leukemia | NCI-H522 lung | KM20L2 colon | NCI-H226 lung | HOP-92 NSCLC | EKVX NSCLC | COLO 205 colon | DLD-1 colon | SF-295 CNS | OVCAR-3 ovarian | RPMI-8226 leukemia | SNB-75 CNS | UO-31 renal | OVCAR-4 ovarian | SF-268 CNS | LOX IMVI melanoma | HCC-2998 colon | XF 498 CNS | NCI-H460 lung | SK-MEL-2 melanoma | SR leukemia | SNB-19 CNS | LXFL 529 NSCLC | IGROV1 ovarian | HCT-116 colon | MALME-3M melanoma | OVCAR-5 ovarian | HOP-62 NSCLC | ACHN renal | HCT-15 colon | KM12 colon | RXF 393 renal | 786-0 renal | SN12C renal | DMS 114 small cell lung

C/C(=N\NC(N)=S)C(CN(CC(C)C)CC(C)C)C(=O)Nc1ccc(C)cc1C (stereo not given)
> 100 µM: HL-60(TB) leukemia | M14 melanoma | CCRF-CEM leukemia | SNB-78 CNS | UACC-257 melanoma | SK-MEL-28 melanoma | TK-10 renal | OVCAR-8 ovarian | HOP-18 NSCLC | DMS 273 small cell lung | SW-620 colon | M19-MEL melanoma | SF-539 CNS | NCI-H23 lung | SK-OV-3 ovarian | A549 NSCLC | A498 renal | UACC-62 melanoma | HT29 colon | SK-MEL-5 melanoma | U251 CNS | MOLT-4 leukemia | CAKI-1 renal | K-562 leukemia | NCI-H522 lung | KM20L2 colon | NCI-H226 lung | HOP-92 NSCLC | EKVX NSCLC | COLO 205 colon | DLD-1 colon | SF-295 CNS | OVCAR-3 ovarian | SNB-75 CNS | UO-31 renal | OVCAR-4 ovarian | SF-268 CNS | LOX IMVI melanoma | HCC-2998 colon | XF 498 CNS | NCI-H460 lung | SK-MEL-2 melanoma | SR leukemia | SNB-19 CNS | LXFL 529 NSCLC | IGROV1 ovarian | HCT-116 colon | MALME-3M melanoma | OVCAR-5 ovarian | HOP-62 NSCLC | ACHN renal | HCT-15 colon | KM12 colon | RXF 393 renal | 786-0 renal | SN12C renal | DMS 114 small cell lung
